Read-outs that look alike come from different tables or passages of the source.
Legend:
[1] = cited from earlier work
[2] = Single-dose pharmacokinetic evaluation of gastroretentive tablets in human healthy volunteers (Example 5); assay type: in vivo; conditions: plasma, oral, 250 mg, single administration, high-fat meal
Description: The “fast” 5-HTP (250 mg) / low-dose carbidopa (0.625 mg, 2.5 mg, 5 mg, or 15 mg) gastroretentive tablets were administered orally to subjects from a cohort totaling 16 healthy subjects in a 5-period open label pharmacokinetics study. The subjects’ mean age was ~50 years (33 to 60 years). All were Caucasian, 11 males, 5 females. Average weight was ~80 kg and all body mass index (BMI) < 32.0 kg/m^2. The subjects were admitted to a clinic during the study. The swelling layer of the tablets was radiolabelled with ≤1 MBq ^111In to allow for parallel scintigraphic location of the tablets in the gastrointestinal tract. The tablets were administered in the morning, one tablet per administration, after ingestion of≥80% of the breakfast. Tablets were administered with 210 mL water followed by a radiolabelled drink (radiocontrast) containing NMT 4 MBq technetium-99m-diethylene triaminepentaacetic acid (99mTc-DTPA) in 30 mL of water. […]
In the first 4 periods, the tablets were administered after a standardized FDA high-fat, high-calorie meal (FDA, 2022), in order of increasing doses of carbidopa. […] The 5-HTP and carbidopa in the plasma were analyzed by liquid-chromatography-mass spectrometry. […]
Carbidopa plasma was below lower limit of quantification (1 ng/ml) at all timepoints at the 0.625 mg carbidopa dose strength, and for most time points at the 2.5 mg carbidopa dose strength. […]

[3] = PK simulation to steady-state at twice-daily dosing by non-parametric superposition (NPS); design: species or system human; conditions: plasma 5-HTP, steady-state at twice-daily administration
Excerpt: Given this T½ for 5-HTP and the known metabolism of 5-HTP by AAAD, non-parametric superpositioning (NPS) pharmacokinetic modeling can be applied to predict steady-state 5-HTP plasma exposure. NPS is an established method known in the field to generally predict steady-state plasma levels of an active pharmaceutical compound. NPS assumes that each dose of an active pharmaceutical compound is metabolized independently of other doses; that the rate and extent of absorption and average systemic clearance are the same for each dosing interval; and that linear pharmacokinetics apply. Based on NPS, the steady-state 5-HTP plasma exposure would be expected to be about 0.25-fold higher (to total about 1.25-fold) than that observed after single-administration. Further, given the T½, steady-state plasma exposure would, according to standard assumptions, be expected to be reached within 5-6 half-lives, i.e., about 1 day.
Plasma pharmacokinetics parameters were estimated using standard Phoenix WinNonlin methods. Data are presented as geometric mean ± SEM. The 5-HTP plasma profiles after single tablet administration of “fast” 5-HTP (250 mg) / low-dose carbidopa (15 mg) tablets following either an FDA high-fat high-calorie meal versus after an FDA moderate-fat, moderate-calorie meal are shown in FIG. 6B. […]

[4] = cited from earlier work; remark: listed apart in the source
[5] = Excipient compatibility of 5-HTP and carbidopa blends, storage at 40° C; assay type: physicochemical; conditions: for 5-HTP Impurities at T= 1 month (%) Total / Carbidopa Impurities at T= 1 month (%) Total / 5-HTP Impurities at T= 1 month (%) LSI / Carbidopa Impurities at T= 1 month (%) LSI: 1 month at 40° C; for 5-HTP Impurities at T=7 (%) Total / Carbidopa Impurities at T=7 (%) Total / 5-HTP Impurities at T=7 (%) LSI / Carbidopa Impurities at T=7 (%) LSI: 7 days at 40° C; for 5-HTP Impurities at T= 1 month (%) LSI / Carbidopa Impurities at T= 1 month (%) LSI / 5-HTP Impurities at T=7 (%) LSI / Carbidopa Impurities at T=7 (%) LSI / 5-HTP Impurities at T=0 (%) LSI / Carbidopa Impurities at T=0 (%) LSI: largest single impurity
Description: Excipient compatibility studies were performed to examine the stability of 5-HTP and carbidopa mixed together, either the two APIs alone or in the presence of one or two excipients. The stability (assay and level of impurities) was tested using small aliquots of 5-HTP (300 mg) and carbidopa (25 mg) blended together, with or without together excipients. The API/excipient ratios were based on the approximate composition of gastroretentive tablets of 5-HTP and carbidopa in Table 1. There were no significant increases in the levels of impurities for any of the API/excipient(s) combinations at T=0, 7 days and 1 month of storage at 40° C. The maximum percentage increase (largest single impurity) for carbidopa was 0.44%, 0.55%, and 0.86% at T=0, 7 days and 1 month, respectively. The maximum percentage increase for 5-HTP was 0.27%, 0.48%, and 0.49% at T=0, 7 days and 1 month, respectively.

5-HTP Impurities at T= 1 month (%) Total [5] [%]	Carbidopa Impurities at T= 1 month (%) Total [5] [%]	5-HTP Impurities at T=7 (%) Total [5] [%]	Carbidopa Impurities at T=7 (%) Total [5] [%]	5-HTP Impurities at T=0 (%) Total [5] [%]	Carbidopa Impurities at T=0 (%) Total [5] [%]	5-HTP Impurities at T= 1 month (%) LSI [5] [%]	Carbidopa Impurities at T= 1 month (%) LSI [5] [%]	5-HTP Impurities at T=7 (%) LSI [5] [%]	Carbidopa Impurities at T=7 (%) LSI [5] [%]	5-HTP Impurities at T=0 (%) LSI [5] [%]	Carbidopa Impurities at T=0 (%) LSI [5] [%]	Structure (SMILES)	aqueous solubility [4]	further results
–	–	–	–	–	–	–	–	–	–	–	–	N[C@@H](Cc1ccc(O)c(O)c1)C(=O)O [L-DOPA]	–	time for L-DOPA plasma exposure to reach steady-state ([1]; L-DOPA/carbidopa therapy, 600-1200 mg/day and 120-150 mg/day): less than 12 h
–	–	–	–	–	–	–	–	–	–	–	–	N[C@@H](Cc1c[nH]c2ccc(O)cc12)C(=O)O [Sample 5-HTP, 5-hydroxytryptophan]	~ 15 mg/ml	half-life ([2]; read-out: Elimination half-life (Average) 5-HTP (converted)): 2.9 h; Tmax ([2]; read-out: TMax (Average) 5-HTP): 1 h; Relative steady-state average plasma exposure (average ng/ml gastroretentive /average ng/ml immediate release) [3]: 1; 5-HTP plasma exposure ([1]; 200 mg/day carbidopa with 1,150-2,900 mg/day 5-HTP, separate IR dosage forms, after 8-54 months (Magnussen and Van Woert, 1982b)): 2,000-10,000 ng/ml; Tmax ([1]; native 5-HTP immediate release): ~ 1 h; half-life T½ ([1]; native 5-HTP immediate release): ~ 2 h; oral bioavailability ([1]; native 5-HTP immediate release, one study (WO2019245925)): ~ 20%; bioavailability in the colon ([1]; one study (WO2019245925)): ~ 4%; bioavailability in the upper intestine ([1]; one study (WO2019245925)): ~ 20%
0.26	0.00	0.23	0.00	0.23	0.00	0.12	0.00	0.12	0.00	0.13	0.00	N[C@@H](Cc1c[nH]c2ccc(O)cc12)C(=O)O [Sample 17, 5-HTP (control)]	–	–
0.00	0.79	0.00	0.45	0.00	0.41	0.00	0.27	0.00	0.28	0.00	0.27	C[C@@](Cc1ccc(O)c(O)c1)(NN)C(=O)O [Sample 18, Carbidopa (control)]	–	–
–	–	–	–	–	–	–	–	–	–	–	–	C[C@@](Cc1ccc(O)c(O)c1)(NN)C(=O)O [carbidopa]	~ 1.5 mg/ml	T½ ([1]; known value): 1 to 2 h

— patent publication US20230301966A1, “METHOD OF ENHANCING 5-HYDROXYTRYPTOPHAN (5-HTP) EXPOSURE” (Evecxia Therapeutics, Inc., priority 2021, published 2023)
